The pIC50 is −log10 of the IC50, conventionally taken in molar units.

pIC50: −log10 of the molar value. Strand notation (5' to 3'): a small letter for the sugar, then the base; units joined by * are phosphorothioate-linked, units joined directly phosphodiester-linked; [ ] holds rarer units or linkages, { } end groups; capitals alone tell only the bases. e = 2'-O-(2-methoxyethyl) (MOE); k = constrained ethyl (cEt); [5mC] = 5-methylcytosine; d = 2'-deoxy (DNA) Where only a bound is given, the exact number is not on record here.

We go through eleven substances from patent US11214803B2, “Modulators of YAP1 expression” (Ionis Pharmaceuticals, Inc., priority 2019, dated 2022).

This data set has as its system Yap1 mRNA. Kind of data set: Dose-dependent inhibition of human Yap1 in SNU-449 cells (Example 9, RTS36584). The settings on record: free uptake; for % UTC (Yap1 mRNA): approximately 48 hours; for pIC50: linear regression on a log/linear plot. The data set is classed as cell-based. An outline of the steps:
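SNU-449 cells (10,000/well) took up modified oligonucleotides by free uptake at a range of doses for about 48 h. Yap1 mRNA was quantified with primer-probe set RTS36584, normalised to RIBOGREEN total RNA and expressed as % untreated control; IC50 from linear regression on log/linear plot.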

Consider “1198610 (kT*kG*kT*dA*dT*dG*dT*d[5mC]*dA*dG*dA*dA*kG*kA*kG*eT; antisense) [compound 1198610]”, for which the pIC50 was 7.00. In addition, the “% UTC (Yap1 mRNA)” value (31.3 nM) is recorded as 69 % UTC. Moreover, the “% UTC (Yap1 mRNA)” value (125.0 nM) is 29 % UTC. The “% UTC (Yap1 mRNA)” value (500.0 nM) is listed as 7 % UTC. Further, for the setting “2000.00 nM”, the “% UTC (Yap1 mRNA)” value amounted to 2 % UTC.
Substance “1198611 (kA*kG*kT*dG*dT*dA*dT*dG*dT*d[5mC]*dA*dG*kA*kA*kG*eA; antisense) [compound 1198611]” gave a pIC50 of more than 7.52. Moreover, the “% UTC (Yap1 mRNA)” value (31.3 nM) came to 37 % UTC. In addition, the “% UTC (Yap1 mRNA)” value (125.0 nM) came out at 19 % UTC. The “% UTC (Yap1 mRNA)” value (500.0 nM) is 4 % UTC. Moreover, the “% UTC (Yap1 mRNA)” value (2000.00 nM) stood at 1 % UTC.
In the case of “1198613 (kA*kA*kA*dG*dT*dG*dT*dA*dT*dG*dT*d[5mC]*kA*kG*kA*eA; antisense) [compound 1198613]”, the pIC50 is 7.00. Also, under “31.3 nM”, the “% UTC (Yap1 mRNA)” value is 80 % UTC. Further, the “% UTC (Yap1 mRNA)” value (125.0 nM) was 25 % UTC. The “% UTC (Yap1 mRNA)” value (500.0 nM) amounted to 7 % UTC. The “% UTC (Yap1 mRNA)” value (2000.00 nM) is listed as 2 % UTC.
The matching figures for “1198614 (kT*kA*kA*dA*dG*dT*dG*dT*dA*dT*dG*dT*k[5mC]*kA*kG*eA; antisense) [compound 1198614]”: 7.00, 69 % UTC, 26 % UTC, 3 % UTC and 1 % UTC.
The substance “1198616 (kT*kT*kT*dA*dA*dA*dG*dT*dG*dT*dA*dT*kG*kT*k[5mC]*eA; antisense) [compound 1198616]” showed a pIC50 of 7.00. Further, the “% UTC (Yap1 mRNA)” value (31.3 nM) stood at 78 % UTC. Besides, the “% UTC (Yap1 mRNA)” value (125.0 nM) is listed as 46 % UTC. Moreover, the “% UTC (Yap1 mRNA)” value (500.0 nM) is given as 18 % UTC. In addition, the “% UTC (Yap1 mRNA)” value (2000.00 nM) is 5 % UTC.
The matching figures for “1198624 (kA*k[5mC]*kT*dA*dA*dG*dT*dA*dA*dG*dG*dT*kT*kT*k[5mC]*e[5mC]; antisense) [compound 1198624]”: 7.00, 62 % UTC, 37 % UTC, 21 % UTC and 9 % UTC.
For “1198638 (kA*kG*dA*dG*dT*dA*dT*dG*dT*dG*dG*d[5mC]*kA*eA*kT*eA; antisense) [compound 1198638]” the same measures were 7.00, 70 % UTC, 42 % UTC, 13 % UTC and 4 % UTC.
The substance “1198642 (kT*kA*dT*dT*dA*dG*dA*dG*dT*dA*dT*dG*kT*eG*kG*e[5mC]; antisense) [compound 1198642]” showed a pIC50 of 7.00. Besides, the “% UTC (Yap1 mRNA)” value (31.3 nM) was found to be 79 % UTC. For the same substance, where the note is “125.0 nM”, the “% UTC (Yap1 mRNA)” value was determined as 48 % UTC. Further, the “% UTC (Yap1 mRNA)” value (500.0 nM) turned out to be 15 % UTC. Moreover, the “% UTC (Yap1 mRNA)” value (2000.00 nM) is 4 % UTC.
“1198656 (kG*k[5mC]*dA*d[5mC]*dT*dT*dT*dT*dA*d[5mC]*dA*dT*kT*eA*kG*eG; antisense) [compound 1198656]” had a pIC50 of more than 7.52. In addition, under “31.3 nM”, the “% UTC (Yap1 mRNA)” value turned out to be 55 % UTC. The “% UTC (Yap1 mRNA)” value (125.0 nM) stood at 22 % UTC. Besides, the “% UTC (Yap1 mRNA)” value (500.0 nM) was 8 % UTC. Further, the “% UTC (Yap1 mRNA)” value (2000.00 nM) was 3 % UTC.
The matching figures for “1198664 (kG*k[5mC]*dT*dT*dT*dG*dG*dA*dA*dG*dA*dT*k[5mC]*eT*kG*eA; antisense) [compound 1198664]”: more than 7.52, 52 % UTC, 33 % UTC, 14 % UTC and 5 % UTC.
The substance “1198696 (kT*kG*dT*dA*dT*dG*dT*d[5mC]*dA*dG*dA*dA*kG*eA*kG*eT) [compound 1198696]” gave a pIC50 of 7.40. In addition, the “% UTC (Yap1 mRNA)” value (31.3 nM) was 58 % UTC. Further, under “125.0 nM”, the “% UTC (Yap1 mRNA)” value is 31 % UTC. The “% UTC (Yap1 mRNA)” value (500.0 nM) is listed as 11 % UTC. Besides, the “% UTC (Yap1 mRNA)” value (2000.00 nM) amounted to 2 % UTC.
